{"source": "paper PMC6271978", "about": "“1H-2,3-Dihydroperimidine Derivatives: A New Class of Potent Protein Tyrosine Phosphatase 1B Inhibitors” (Molecules, 2013)", "format_in_all_cases": "biochemical", "key": {"[1]": {"molecular_target": "T1, TCPTP (GST-TCPTP) (Homo sapiens, UniProt P17706)", "T1 sequence (P17706 1-415)": "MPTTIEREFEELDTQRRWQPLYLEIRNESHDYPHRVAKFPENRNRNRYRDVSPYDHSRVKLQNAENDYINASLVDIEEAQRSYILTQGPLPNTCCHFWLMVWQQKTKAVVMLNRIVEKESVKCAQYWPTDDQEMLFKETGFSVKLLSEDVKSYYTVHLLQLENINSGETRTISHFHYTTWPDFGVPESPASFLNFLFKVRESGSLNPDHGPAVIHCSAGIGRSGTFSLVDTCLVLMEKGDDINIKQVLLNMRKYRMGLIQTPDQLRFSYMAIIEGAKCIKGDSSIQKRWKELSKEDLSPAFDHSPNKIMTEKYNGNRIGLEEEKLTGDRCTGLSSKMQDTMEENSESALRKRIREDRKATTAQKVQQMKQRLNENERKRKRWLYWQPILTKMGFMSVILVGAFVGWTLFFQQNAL", "experiment": "TCPTP inhibition, colorimetric pNPP assay", "experimental": "(§1) In addition to potency improvements, we investigated the selectivity of three representative compounds, namely, 1, 46 and 49 against other PTPs (TCPTP, SHP-1, SHP-2, LAR). […] Besides TCPTP, we tested the inhibitory activity of these compounds on other three homogenous enzymes SHP-1, SHP-2, and LAR [25].\n(§2) A colorimetric assay to measure inhibition against PTP1B and TCPTP was performed in 96-well plates. Briefly, the tested compounds were solubilized in DMSO and serially diluted into concentrations for the inhibitory test. The assays were carried out in a final volume of 100 μL containing 50 mmol/L MOPS, pH 6.5, 2 mmol/L pNPP, 30 nmol/L GST-PTP1B or GST-TCPTP,and 2% DMSO, and the catalysis of pNPP was continuously monitored on a SpectraMax 340 microplate reader at 405 nm for 3 min at 30 °C. The IC50 value was calculated from the nonlinear curve fitting of the percent inhibition [inhibition (%)] vs. the inhibitor concentration using the Equation (1): Inhibition (%) = 100/[1 + (IC50/[I]k)] (1) where k is the Hill coefficient. To study the inhibition on the other PTPase family members, SHP1, SHP2 and LAR were prepared and assays were performed according to procedures described previously. Briefly, the enzymatic activity of the SHP1, SHP2 and LARwere determined at 30 °C by monitoring the dephosphorylation of substrate 3-o-methylfluorescein phosphate (OMFP), product was then detected at a 485 nm excitation wavelength and 530 nm emission wavelength by the EnVision multilabe plate reader (Perkin-Elmer Life Sciences, Boston, MA, USA). The assays were carried out in a final volume of 50 μL containing 50 mmol/L MOPS, pH 6.8, 10 μmol/L OMFP, 20 nmol/L recombinant enzyme, 2 mmol/L dithiothreitol , 1 mmol/L EDTA, and 2% DMSO. The initial rate of the dephosphorylation was presented by the early linear region of the enzymatic reaction kinetic curve, the inhibitory activity of the compound was continuously monitored."}, "[2]": {"molecular_target": "T2, SHP-2 (Homo sapiens, UniProt Q06124)", "T2 construct": "made in house", "T2 sequence (Q06124 1-593)": "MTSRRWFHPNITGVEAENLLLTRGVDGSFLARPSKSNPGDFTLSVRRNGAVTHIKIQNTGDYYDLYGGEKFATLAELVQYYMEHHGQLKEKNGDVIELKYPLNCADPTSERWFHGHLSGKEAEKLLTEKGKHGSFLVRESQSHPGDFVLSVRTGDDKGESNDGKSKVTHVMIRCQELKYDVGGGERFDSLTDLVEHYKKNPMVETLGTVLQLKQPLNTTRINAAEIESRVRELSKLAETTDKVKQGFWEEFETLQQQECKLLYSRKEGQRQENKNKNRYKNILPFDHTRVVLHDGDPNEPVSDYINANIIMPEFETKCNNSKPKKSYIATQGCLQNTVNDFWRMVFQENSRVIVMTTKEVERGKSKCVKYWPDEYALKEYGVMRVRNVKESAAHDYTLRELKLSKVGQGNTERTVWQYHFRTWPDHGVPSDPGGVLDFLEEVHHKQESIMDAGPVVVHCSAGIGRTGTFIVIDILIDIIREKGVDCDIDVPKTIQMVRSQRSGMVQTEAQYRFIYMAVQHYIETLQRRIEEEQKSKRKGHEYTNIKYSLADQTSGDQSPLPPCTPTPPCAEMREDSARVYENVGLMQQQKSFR", "experiment": "SHP-2 inhibition, OMFP substrate assay", "experimental": "as §1, §2"}, "[3]": {"molecular_target": "T3, PTP1B (Homo sapiens, UniProt P18031)", "T3 sequence (P18031 1-435)": "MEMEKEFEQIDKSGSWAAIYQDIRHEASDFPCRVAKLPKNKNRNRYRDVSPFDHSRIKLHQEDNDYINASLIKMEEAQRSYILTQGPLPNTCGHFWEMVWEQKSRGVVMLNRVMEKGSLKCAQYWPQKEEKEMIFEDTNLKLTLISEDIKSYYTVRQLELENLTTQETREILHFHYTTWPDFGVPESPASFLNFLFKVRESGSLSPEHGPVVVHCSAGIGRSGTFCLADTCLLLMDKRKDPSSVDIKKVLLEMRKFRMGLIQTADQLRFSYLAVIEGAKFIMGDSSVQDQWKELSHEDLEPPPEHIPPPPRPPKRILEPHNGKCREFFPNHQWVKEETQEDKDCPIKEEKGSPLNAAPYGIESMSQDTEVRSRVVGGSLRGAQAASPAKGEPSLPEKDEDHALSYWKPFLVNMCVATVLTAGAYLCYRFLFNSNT", "experiment": "Enzyme kinetics: fast-binding and inhibition modality on PTP1B", "experimental": "A kinetic study was performed in order to identify the inhibitory mechanism of compound 46 (Figure 2), using the reported enzyme kinetics assays.\nTo characterize the inhibitor of PTP1B, the assay was carried out in a 100 μL system containing 50 mmol/L MOPS, pH 6.5, 14 nmol/L PTP1B, pNPP in 2-fold dilution from 80 mmol/L, and different concentrations of the inhibitor. […] (2) where Km is the Michaelis constant, v is the initial rate, Vmax is the maximum rate, and [S] is the substrate concentration. The Ki value was obtained by the linear replot of apparent Km/Vmax (slope) from the primary reciprocal plot versus the inhibitor concentration [I] according to the equation Km/Vmax = 1 + [I]/Ki."}}, "note": "“Also recorded” adds a separate entry of the source.", "data": [{"smiles": "O=C(O)CNC(=O)c1ccc(C2Nc3cccc4cccc(c34)N2)nc1", "note": "[Compound 46]", "values": [{"measurement": "IC50", "setting": "[1]; pNPP substrate, means ± SD of three replications, PC = oleanolic acid", "value": "2.3 ± 0.17", "unit": "µM"}, {"measurement": "TCPTP/PTP1B (selectivity, fold)", "setting": "[1]; ratio of IC50 TCPTP to IC50 PTP1B", "value": 3.48}, {"measurement": "IC50", "setting": "[2]; OMFP substrate, means ± SD of three replications, PC = Na3VO4", "value": "5.95 ± 0.29", "unit": "µM"}, {"measurement": "selectivity for PTP1B over SHP-2", "setting": "[2]; from IC50 values", "value": "about 9 fold"}, {"measurement": "inhibition modality toward PTP1B", "setting": "[3]; Lineweaver-Burk plot, increased Km, unchanged Vmax, pNPP substrate", "value": "competitive inhibitor; also recorded: Typical competitive inhibition"}, {"measurement": "binding behaviour of inhibition of PTP1B (time dependence)", "setting": "[3]; preincubation of PTP1B with compound on ice for different times", "value": "fast-binding inhibition"}]}]}
